Measurements published in patent US20050288355A1, “Combination therapy wherein a serotonin reuptake inhibitor is used” (priority 2002, published 2005).

Key:
[1] = system: 5-HT levels in rat ventral hippocampus; test: Microdialysis of brain serotonin levels, ventral hippocampus; type: in vivo
Protocol: (§1) Male albino rats of a Wistar-derived strain (285-320 g; Harlan, Zeist, The Netherlands) were used for the experiments. Upon surgery, rats were housed individually in plastic cages (35×35×40 cm), and had free access to food and water. Animals were kept on a 12 h light schedule (light on 7:00 a.m.). The experiments are concordant with the declarations of Helsinki and were approved by the animal care committee of the faculty of mathematics and natural science of the University of Groningen.
Microdialysis of brain serotonin levels was performed using home made I-shaped probes, made of polyacrylonitrile/sodium methyl sulfonate copolymer dialysis fiber (i.d. 220 μn, o.d. […], AN 69, Hospal, Italy). Preceding surgery rats were anaesthetised using isoflurane (O2/N2O; 300/300 ml/min). Lidocaine-HCl, 10% (m/v) was used for local anaesthesia. Rats were placed in a stereotaxic frame (Kopf, USA), and probes were inserted into Ventral Hippcampus (V. Hippo, L+4.8 mm, IA: +3.7 mm, V: −8.0 mm) and median prefrontal cortex (PFC, L −0.9 mm; AP: +3.5 mm relative to bregma; V: −6.0 mm (Paxinos and Watson, 1982). After insertion, probes were secured with dental cement.
Rats were allowed to recover for at least 24 h. Probes were perfused with artificial cerebrospinal fluid containing 147 mM NaCl, 3.0 mM KCl, 1.2 mM CaCl2, and 1.2 mM MgCl2, at a flow-rate of 1.5 μl/min (Harvard apparatus, South Natick, Ma., USA). 15 minute microdialysis samples were collected in HPLC vials containing 7.5 μl 0.02 M acetic acid for serotonin analysis.
Twenty-μl microdialysate samples were injected via an autoinjector (CMA/200 refrigerated microsampler, CMA, Sweden) onto a 100×2.0 mm C18 Hypersil 3 μm column (Bester, Amstelveen, the Netherlands) and separated with a mobile phase consisting of 5 g/L di-ammoniumsulfate, 500 mg/L EDTA, 50 mg/L heptane sulphonic acid, 4% methanol v/v, and 30 μl/L of triethylamine, pH 4.65 at a flow of 0.4 ml/min (Shimadzu LC-10 AD). 5-HT was detected amperometrically at a glassy carbon electrode at 500 mV vs Ag/AgCl (Antec Leyden, Leiden, The Netherlands). The detection limit was 0.5 fmol 5-HT per 20 μl sample (signal to noise ratio 3).
Four consecutive microdialysis samples with less then 20% variation were taken as control and set at 100%. Data are presented as percentages of control level (mean±S.E.M.) in time. Statistical analysis was performed using Sigmastat for Windows (SPSS, Jandel Corporation). Treatments were compared versus controls using two way analysis of variance (ANOVA) for repeated measurements, followed by Student Newman Keuls test. Level of significance level was set at p<0.05.

[2] = system: 5-HT levels in rat prefrontal cortex; test: Microdialysis of brain serotonin levels, prefrontal cortex; type: in vivo; settings: PFC; 2 mg/kg s.c. co-administered with citalopram 10 μmol/kg s.c.; P=0.048
Protocol: as §1
Microdialysis of brain serotonin levels was performed using home made I-shaped probes, made of polyacrylonitrile/sodium methyl sulfonate copolymer dialysis fiber (i.d. 220 μn, o.d. 0.31 μm, AN 69, Hospal, Italy). Preceding surgery rats were anaesthetised using isoflurane (O2/N2O; 300/300 ml/min). Lidocaine-HCl, 10% (m/v) was used for local anaesthesia. […]
Twenty-μl microdialysate samples were injected via an autoinjector (CMA/200 refrigerated microsampler, CMA, Sweden) onto a 100×2.0 mm C18 Hypersil 3 μm column (Bester, Amstelveen, the Netherlands) and separated with a mobile phase consisting of 5 g/L di-ammoniumsulfate, 500 mg/L EDTA, 50 mg/L heptane sulphonic acid, 4% methanol v/v, and 30 μl/L of triethylamine, pH 4.65 at a flow of 0.4 ml/min (Shimadzu LC-10 AD). 5-HT was detected amperometrically at a glassy carbon electrode at 500 mV vs Ag/AgCl (Antec Leyden, Leiden, The Netherlands). […]

[3] = system: 5-HT in the raphe nuclei / forebrain; settings: cited from earlier work

## NCC(O)(CS(=O)(=O)O)c1ccc(Cl)cc1 (centres unmarked) [2-hydroxysaclofen]
[1]; 2 mg/kg s.c. simultaneous with citalopram 10 μmol/kg s.c., P=0.046
  effects on 5-HT levels with citalopram: augmented effects on 5-HT levels

## NCCCP(=O)(O)CC1CCCCC1 [CGP 46381]
[1]; 0.5 mg/kg co-administered with citalopram 10 μmol/kg, treatment p=0.04
  response on 5-HT levels with citalopram: augmented response
[1]; 2 mg/kg co-administered with citalopram 10 μmol/kg, treatment p=0.10, treatment vs. time 0.001
  response on 5-HT levels with citalopram: augmented response
[1]; 10 mg/kg s.c., without citalopram
  effect on 5-HT levels, given alone: did not show any effect

## NCC(CP(=O)(O)O)c1ccc(Cl)cc1 (centres unmarked) [Phaclofen]
[1]; 2 mg/kg s.c. co-administered with citalopram 10 μmol/kg s.c., P=0.021, t=75 to t=135
  5-HT levels compared to citalopram treatment alone: enhanced levels of 5-HT
[1]; administered either centrally into the hippocampus or systemically, with citalopram
  effects of citalopram on extracellular 5-HT levels: significantly increase
[1]; local infusion (50 μM) in ventral hippocampus, P=0.26
  effect on basal levels of 5-HT: did not have any effect
[1]; local phaclofen 50 μM, citalopram 10 μmol/kg s.c., P=0.0068, significant from t=75 to 150 min
  5-HT levels after systemic citalopram during local administration: augmented levels of 5-HT
[2]
  5-HT levels compared to citalopram treatment alone: enhanced levels of 5-HT
[3]; raphe or forebrain
  effect on 5-HT levels when administered by itself: devoid of effect

## NCC(CC(=O)O)c1ccc(Cl)cc1 (centres unmarked) [baclofen]
[3]; forebrain
  5-HT in the forebrain: reduction
[3]; raphe
  5-HT in the raphe: decrease

## CN1CCc2cc3c(cc2[C@H]1[C@@H]1OC(=O)c2c1ccc1c2OCO1)OCO3 [bicuculline, (+)-Bicuculline]
[1]; local administration of 50 μM in ventral hippocampus, significant from t=45 to 90 min
  increase of serotonin levels: about 150%

## NCc1cc(=O)[nH]o1 [muscimol]
[3]; raphe nuclei
  5-HT cell activity & 5-HT release: reduced
